Here are results for two molecules from patent publication US7053107B2, “Indazole compounds and pharmaceutical compositions for inhibiting protein kinases, and methods for their use” (Agouron Pharmaceuticals, Inc., priority 2002, dated 2006).

In one assay the target is T1, KDR (Homo sapiens, UniProt P35968).
T1 construct: expressed in transfected cells; host or cells: porcine aorta endothelial (PAE) cells
As to the kind of experiment: KDR (VEGFR2) Phosphorylation in PAE-KDR Cells Assay. Type of assay: cell-based. To be noted: PAE cells overexpressing human KDR. As for the experimental part: This assay determines the ability of a test compound to inhibit the autophosphorylation of KDR in porcine aorta endothelial (PAE)-KDR cells. PAE cells that overexpress human KDR were used in this assay. The cells were cultured in Ham's F12 media supplemented with 10% fetal bovine serum (FBS) and 400 μg/mL G418. Thirty thousands cells were seeded into each well of a 96-well plate in 75 μL of growth media and allowed to attach for 6 hours at 37° C. Cells were then exposed to the starvation media (Ham's F12 media supplemented with 0.1% FBS) for 16 hours. After the starvation period was over, 10 μL of test agent in 5% DMSO in starvation media were added to the test wells and 10 μL of the vehicle (5% DMSO in starvation media) were added into the control wells. The final DMSO concentration in each well was 0.5%. Plates were incubated at […] for 1 hour and the cells were then stimulated with 500 ng/ml VEGF (commercially available from R & D System) in the presence of 2 mM Na3VO4 for 8 minutes. The cells were washed once with 1 mm Na3VO4 in HBSS and lysed by adding 50 μL per well of lysis buffer. […] Phosphorylation status was assessed by spectrophotometer reading at 450 nm. IC50 values were calculated by curve fitting using a four-parameter analysis.

The target in the next assay is T2, FGF-R1 (Homo sapiens, UniProt P11362, C488A/C584S/L457V).
T2 construct: starting from the endogenous methionine residue 456 to glutamate 766; made in house; host or cells: baculovirus vector expression system
As to the kind of experiment: Fibroblast Growth Factor (FGF-R) spectrophotometric assay. The note with it: 1 μM compound; read-out: FGF-P % inhibit @1 μM. Type of assay: biochemical. In short, it runs like this:
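Baculovirus-expressed human FGF-R1 kinase domain (Met456–Glu766; L457V/C488A/C584S), 50 nM, with 2 mM ATP and 15 mM poly(E4Y1) in HEPES pH 7.5. ADP formation coupled via PK/LDH to NADH oxidation, read as A340 decrease. Ki from activity across varying compound concentrations.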

In assay [1] the target is T3, unphosphorylated VEGF-R2Δ50 (Homo sapiens, UniProt P35968, DEL940-989/E990V).
T3 construct: VEGF-R2Δ50 contains residues 806–939 and 990–1171; made in house; host or cells: baculovirus/insect cell system
As to the kind of experiment: VEGF-R2 coupled spectrophotometric assay, unphosphorylated construct (FLVK). Type of assay: biochemical. The note with it: % inhibition at 50 nM compound; read-out: FLVK Ki % inh @ 50 nM. The procedure, abridged:
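Human VEGF-R2Δ50 kinase (residues 806–939/990–1171, baculovirus-expressed; autophosphorylated form pre-treated with 3 mM ATP, 4° C, 2 h), 5–40 nM, with poly(E4Y1) in 200 mM HEPES pH 7.5; ADP coupled via PK/LDH to NADH oxidation at 340 nm. Phosphorylated: 1 mM ATP, 5.1 mM poly(E4Y1), 25 mM MgCl2; unphosphorylated: 3 mM ATP, 20 mM poly(E4Y1), 60 mM MgCl2, 2 mM MnCl2. Ki from activity at varying compound levels.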

The test system of another assay is HUVEC. As to the kind of experiment: bFGF Huvec. The format is cell-based. To be noted: Homo sapiens.
Assay [2] addresses T4, phosphorylated VEGF-R2Δ50 (Homo sapiens, UniProt P35968, DEL940-989/E990V).
T4 construct: VEGF-R2Δ50 contains residues 806–939 and 990–1171; made in house; host or cells: baculovirus/insect cell system
As to the kind of experiment: VEGF-R2 coupled spectrophotometric (FLVK-P) assay, phosphorylated construct. The format is biochemical. To be noted: Ki (nM). The text has this:
This construct determines the ability of a test compound to inhibit tyrosine kinase activity. A construct (VEGF-R2Δ50) of the cytosolic domain of human vascular endothelial growth factor receptor 2 (VEGF-R2) lacking the 50 central residues of the 68 residues of the kinase insert domain was expressed in a baculovirus/insect cell system. Of the 1356 residues of full-length VEGF-R2, VEGF-R2Δ50 contains residues 806–939 and 990–1171, and also one point mutation (E99OV) within the kinase insert domain relative to wild-type VEGF-R2. Autophosphorylation of the purified construct was performed by incubation of the enzyme at a concentration of 4 μM in the presence of 3 mM ATP and 40 mM MgCl2 in 100 mM HEPES, pH 7.5, containing 5% glycerol and 5 mM DTT, at 4° C. for 2 h. […] See Parast et al., Biochemistry, 37,16788–16801 (1998).
The production of ADP from ATP that accompanies phosphoryl transfer was coupled to oxidation of NADH using phosphoenolpyruvate (PEP) and a system having pyruvate kinase (PK) and lactic dehydrogenase (LDH). The oxidation of NADH was monitored by following the decrease of absorbance at 340 nm (e340=6.22 cm^−1 mM^−1) using a Beckman DU 650 spectrophotometer. […] Ki values were determined by measuring enzyme activity in the presence of varying concentrations of test compounds. The data were analyzed using Enzyme Kinetic and Kaleidagraph software.

Assay [3] deals with human umbilical vein endothelial cells (HUVEC). As to the kind of experiment: HUVEC Proliferation Assay (VEGF-stimulated). Type of assay: cell-based. In short, it runs like this:
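Serum-starved HUVEC (passage 3–4, F12K + 1% FBS, 24 h) pretreated 1 h with compound (final DMSO 0.1%), then stimulated with 6 ng/mL VEGF for 72 h. Proliferation read by 4 h MTT reduction, absorbance 595. IC50 from seven-point 0.5-log curves in triplicate; screening % inhibition normalised to VEGF-only and starvation controls.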

T3 sequence (P35968 with tags, fused parts or gaps DEL940-989/E990V limits assumed): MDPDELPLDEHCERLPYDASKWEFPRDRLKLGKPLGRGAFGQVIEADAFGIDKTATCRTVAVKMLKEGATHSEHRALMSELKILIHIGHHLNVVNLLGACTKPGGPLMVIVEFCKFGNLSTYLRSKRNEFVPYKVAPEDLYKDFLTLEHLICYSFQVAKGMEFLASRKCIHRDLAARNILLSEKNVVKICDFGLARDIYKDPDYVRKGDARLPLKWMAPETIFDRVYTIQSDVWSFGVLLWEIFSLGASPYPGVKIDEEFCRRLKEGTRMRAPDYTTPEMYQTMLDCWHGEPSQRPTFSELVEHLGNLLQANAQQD
T1 sequence (P35968 20-1356): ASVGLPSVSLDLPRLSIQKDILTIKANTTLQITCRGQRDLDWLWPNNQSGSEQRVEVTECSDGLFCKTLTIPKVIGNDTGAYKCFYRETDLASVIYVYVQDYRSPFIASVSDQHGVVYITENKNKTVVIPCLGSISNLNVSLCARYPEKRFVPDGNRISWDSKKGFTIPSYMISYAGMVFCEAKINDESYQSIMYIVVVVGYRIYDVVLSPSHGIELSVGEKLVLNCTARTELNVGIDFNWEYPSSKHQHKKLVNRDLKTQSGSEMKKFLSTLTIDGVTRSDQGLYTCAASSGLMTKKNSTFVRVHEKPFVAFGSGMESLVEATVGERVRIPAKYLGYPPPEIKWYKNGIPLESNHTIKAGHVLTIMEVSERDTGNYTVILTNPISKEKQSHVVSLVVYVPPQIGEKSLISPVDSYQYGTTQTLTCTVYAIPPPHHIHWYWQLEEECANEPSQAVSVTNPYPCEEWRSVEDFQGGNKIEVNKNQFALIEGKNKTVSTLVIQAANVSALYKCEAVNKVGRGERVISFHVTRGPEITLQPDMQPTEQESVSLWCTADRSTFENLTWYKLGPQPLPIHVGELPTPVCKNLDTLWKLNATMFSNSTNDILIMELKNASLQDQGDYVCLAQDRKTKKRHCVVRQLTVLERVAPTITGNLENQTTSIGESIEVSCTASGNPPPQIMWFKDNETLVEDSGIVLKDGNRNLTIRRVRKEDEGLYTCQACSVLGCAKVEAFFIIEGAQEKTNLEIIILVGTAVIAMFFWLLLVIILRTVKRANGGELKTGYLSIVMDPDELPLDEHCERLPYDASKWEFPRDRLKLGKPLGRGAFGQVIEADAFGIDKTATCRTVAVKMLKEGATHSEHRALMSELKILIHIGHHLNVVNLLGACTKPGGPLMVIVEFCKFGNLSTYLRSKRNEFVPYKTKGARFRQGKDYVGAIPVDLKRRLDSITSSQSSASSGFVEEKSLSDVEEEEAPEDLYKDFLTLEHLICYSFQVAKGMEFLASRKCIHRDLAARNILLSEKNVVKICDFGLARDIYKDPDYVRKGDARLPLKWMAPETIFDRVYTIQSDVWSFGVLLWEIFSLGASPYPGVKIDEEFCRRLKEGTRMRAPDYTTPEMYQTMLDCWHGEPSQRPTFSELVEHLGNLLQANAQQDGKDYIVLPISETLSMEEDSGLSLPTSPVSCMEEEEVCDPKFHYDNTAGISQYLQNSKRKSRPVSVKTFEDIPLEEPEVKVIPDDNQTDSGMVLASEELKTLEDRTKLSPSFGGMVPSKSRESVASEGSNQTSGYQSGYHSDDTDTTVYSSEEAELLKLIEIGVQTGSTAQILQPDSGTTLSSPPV
T2 sequence (P11362 456-766 L457V/C488A/C584S): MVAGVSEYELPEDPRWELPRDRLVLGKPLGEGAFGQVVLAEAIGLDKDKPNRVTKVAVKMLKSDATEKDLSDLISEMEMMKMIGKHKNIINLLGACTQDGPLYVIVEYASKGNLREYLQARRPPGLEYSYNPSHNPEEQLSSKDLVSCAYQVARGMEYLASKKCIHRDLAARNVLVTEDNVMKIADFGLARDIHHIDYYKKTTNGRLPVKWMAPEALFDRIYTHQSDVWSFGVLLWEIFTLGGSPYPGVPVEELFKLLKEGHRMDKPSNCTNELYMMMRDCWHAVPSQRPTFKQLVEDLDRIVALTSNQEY
T4 sequence (P35968 with tags, fused parts or gaps DEL940-989/E990V limits assumed): as the sequence (P35968 with tags, fused parts or gaps DEL940-989/E990V limits assumed) above

`Cc1ccnc(/C=C/c2n[nH]c3cc(Nc4ccccc4C(=O)NCc4ccccn4)ccc23)c1` [Example 37, 2-{3-[2-(4-Methyl-pyridin-2-yl)-vinyl]-1H-indazol6-ylamino}-N-pyridin-2-ylmethyl-benzamide]: the IC50 against KDR is 0.76 nM. Also, the inhibition at 1 µM at FGF-R1 came to 45%. For the same molecule, in assay [1], the inhibition at 0.05 µM was found to be 90%.

Consider `Cc1ccnc(/C=C/c2n[nH]c3cc(Nc4ccccc4C(=O)NCC#CC4CC4)ccc23)c1` [Example 36, N-(3Cycloprop-2-ynyl)-2-{3-[(E)-2-(4-methyl-pyridin-2-yl)-vinyl]-1H-indazol-6-ylamino}-benzamide], for which the IC50 came to 1.62 nM against KDR, 935 nM in the assay on HUVEC and 1.67 nM in assay [3]. The molecule also came in with a Ki in assay [2] of 0.3 nM. Besides, on FGF-R1, the inhibition at 1 µM was determined as 69%. Moreover, the inhibition at 0.05 µM in assay [1] was determined as 95%.

The IC50 is the concentration needed to halve the response being measured. Read a high IC50 as weaker potency. What is called Ki is a dissociation constant, usually derived from enzyme kinetics or from competition with a known ligand. Read a low Ki as higher affinity.
